The record followed here is PMC6259843 (Molecules, 2011).

In the experiment the target is T1, pancreatic α-amylase (Sus scrofa, UniProt P00690).
T1 construct: gene AMY2
T1 sequence (P00690 16-511): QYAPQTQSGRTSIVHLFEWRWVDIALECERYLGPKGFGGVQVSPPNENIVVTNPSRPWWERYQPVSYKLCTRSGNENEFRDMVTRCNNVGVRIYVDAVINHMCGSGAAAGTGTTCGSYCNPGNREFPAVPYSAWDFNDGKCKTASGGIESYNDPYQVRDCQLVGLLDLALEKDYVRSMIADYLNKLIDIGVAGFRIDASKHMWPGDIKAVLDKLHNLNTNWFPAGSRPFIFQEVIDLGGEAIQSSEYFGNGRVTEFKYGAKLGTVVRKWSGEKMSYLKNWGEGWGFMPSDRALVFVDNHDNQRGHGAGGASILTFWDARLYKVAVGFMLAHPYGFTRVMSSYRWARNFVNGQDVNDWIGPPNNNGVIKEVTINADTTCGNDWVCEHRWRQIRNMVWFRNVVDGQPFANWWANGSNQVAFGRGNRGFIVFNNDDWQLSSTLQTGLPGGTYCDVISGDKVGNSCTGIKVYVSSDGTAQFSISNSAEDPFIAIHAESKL
The experiment is described as follows: starch hydrolysis inhibition assay with DNS readout at […] nm; Lineweaver-Burk kinetics. Format: biochemical.

The term IC50 denotes the concentration needed to halve the response being measured. Compound `C[C@@H]1O[C@@H](OC[C@H]2O[C@@H](Oc3cc4c(O)cc(O)cc4[o+]c3-c3ccc(O)c(O)c3)[C@H](O)[C@@H](O)[C@@H]2O)[C@H](O)[C@H](O)[C@H]1O` [C3R, Cyanidin-3-rutinoside] came in with an IC50 of 24.4 ± 0.1 µM.
